Laboratory results taken from patent US20060281807A1, “Quassinoid compositions for the treatment of cancer and other proliferative diseases” (Tapestry Pharmaceuticals, Inc., priority 2005, published 2006).

Experiments:
HuTu-80 = test: MTT cytotoxicity assay (% kill), HuTu-80; type: cell-based, human; settings: 1 h exposure
Experimental: (§1) The following human tumor cell lines were obtained and cultured in sextuplicate microwells at 37° C. and 5% CO2 in humidified air and in 10% FBS in Eagles MEM: SK—N—FI, SK—N-AS, LS-174T, WiDr, HuTu-80, MCF7, NCI-AR, MES-Sar, and PL-45. Cells from each cell line were separately treated with an amount of one of the compounds of Formula I, II, or III (see Table 1). Cells were exposed to each compound (0.1 μg/mL or 1.0 μg/mL) for one hour or 24 hours, rinsed with drug-free media, and incubated for an additional five days. The number of viable cells after five days was measured using an MTT (3-(4,5-dimethylthiazol-2-yl)-2,5-diphenyltetrazolium bromide) assay (see, e.g., Mosmann, J. Immunol. Methods, 65(1-2), 55-63 (1983)).
(§2) The cytotoxicity of each drug was determined and expressed as the percent of cells killed (“% kill”).

NCI-AR = test: MTT cytotoxicity assay (% kill), NCI-AR; type: cell-based, human; settings: 1 h exposure
Experimental: as §1, §2

tumor cells = test: Inhibition of tumor growth in vivo (% T/C) in SCID mice
Experimental: SCID mice weighing more than 17 grams were supplied food and water ad libidum. The animals were pooled, implanted subcutaneously with tumor cells, and pooled again before distribution to treatment and control groups. Treatment was started when the tumors were palpable (i.e., 10 days after inoculation). Mice received one of four doses (i.e., 1.6, 1.2, 0.8, and 0.4 mg/mouse) of the inventive compound. Each dose was administered intravenously via the tail vein once per day for 5 days. Mice were killed when their tumors reached 1500 mm^3.
Tumor weights were estimated from two-dimensional caliper measurements performed twice a week according to the following formula: Tumor Weight (mg)=(a×b^2)/2 in which a and b are the tumor length and width, respectively, in millimeters.
Therapeutic efficacy was measured as the % T/C value (T=treated, C=control), which was determined each time a tumor measurement was made. The median tumor weight of the treatment and control groups was determined. A % T/C value equal to or less than 50% indicates antitumor activity. A % T/C value of <10% indicates highly significant antitumor activity, and is the level used by the National Cancer Institute (NCI) to justify a clinical trial if toxicity, formulation and other requirements are met. A weight loss of greater than 20% (mean of group) or greater than 20% drug deaths indicates an excessively toxic dose.

PL-45 = test: MTT cytotoxicity assay (% kill), PL-45; type: cell-based, human; settings: 1 h exposure
Experimental: as §1, §2

SK-N-AS = test: MTT cytotoxicity assay (% kill), SK-N-AS; type: cell-based, human; settings: 1 h exposure, MTT after five days
In short: (§3)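 Cells grown in 10% FBS Eagles MEM at 37 °C, 5% CO2, sextuplicate wells, exposed to compound at 0.1 or 1.0 μg/mL for 1 h or 24 h. After rinsing, they were cultured 5 more days. Viable cells then measured by MTT, expressed as % kill.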

WiDr = test: MTT cytotoxicity assay (% kill), WiDr; type: cell-based, human; settings: 0.1 μg/mL, 1 h exposure
Experimental: as §1, §2

MES-Sar = test: MTT cytotoxicity assay (% kill), MES-Sar; type: cell-based, human; settings: 1 h exposure
Experimental: as §1, §2

MCF7 = test: MTT cytotoxicity assay (% kill), MCF7; type: cell-based, human; settings: 1 h exposure
Experimental: as §1, §2

LS-174T = test: MTT cytotoxicity assay (% kill), LS-174T; type: cell-based, human; settings: 1 h exposure, MTT after five days
In short: as §3

Q: How did the “% kill, HuTu-80” value (HuTu-80; 0.1 μg/mL) turn out when `COC(=O)[C@@]12OC[C@@]34C1[C@@H](OC(=O)CC(O)(C(C)C)C(C)C)C(=O)O[C@@H]3C[C@H]1C(C)=C(O)C(=O)C[C@]1(C)[C@H]4[C@@H](O)[C@@H]2O` (stereo partly drawn) [15-O-(3′-hydroxy-3′-isopropyl-4′-methylpentanoyl)bruceolide] was run?
A: 0%

Q: What about the “% kill, HuTu-80” value (HuTu-80; 1.0 μg/mL) of the same compound?
A: 7%

Q: What about the “% kill, NCI-AR” value (NCI-AR; 0.1 μg/mL) of the same compound?
A: 0%

Q: What about the “% kill, NCI-AR” value (NCI-AR; 1.0 μg/mL) of the same compound?
A: 0%

Q: What about the “% T/C” value (tumor cells; 0.4 mg/mouse intravenously once per day for 5 days (lower dose group)) of the same compound?
A: 31%

Q: What about the “% T/C” value (tumor cells; 0.8 mg/mouse intravenously once per day for 5 days (higher dose group of the surviving two)) of the same compound?
A: 16%

Q: What about the mortality (tumor cells; highest two doses (1.6 and 1.2 mg/mouse) intravenously once per day for 5 days) of the same compound?
A: died

Q: And the “% kill, PL-45” value (PL-45; 0.1 μg/mL)?
A: 0%

Q: And the “% kill, PL-45” value (PL-45; 1.0 μg/mL)?
A: 0%

Q: And the “% Kill, SK-N-AS” value (SK-N-AS; 0.1 μg/mL)?
A: 0%

Q: And the “% Kill, SK-N-AS” value (SK-N-AS; 1.0 μg/mL)?
A: 3%

Q: And the “% kill, WiDr” value (WiDr)?
A: 0%

Q: What about the “% kill, MES Sar” value (MES-Sar; 0.1 μg/mL) of the same compound?
A: 0%

Q: And the “% kill, MES Sar” value (MES-Sar; 1.0 μg/mL)?
A: 0%

Q: And the “% kill, MCF7” value (MCF7; 0.1 μg/mL)?
A: 12%

Q: What about the “% kill, MCF7” value (MCF7; 1.0 μg/mL) of the same compound?
A: 31%

Q: And the “% Kill, LS-174T” value (LS-174T; 0.1 μg/mL)?
A: 0%

Q: What about the “% Kill, LS-174T” value (LS-174T; 1.0 μg/mL) of the same compound?
A: 13%
